Experimental data: patent US20140303092A1 (CHIMERIX, INC., priority 2011, published 2014)
“And” between values parts separate entries of the source, which are not always exact repeats. Identical values can stand only once.

Test system: CMV
Assay: Study HDP-CDV-201: prevention or control of CMV infection in R+ HSCT recipients (efficacy)
Type: in vivo, human (adult allogeneic HSCT recipients)
Description: The clinical study of the current invention (HDP-CDV-201) was a 9-11 week randomized, placebo-controlled, double-blind, dose-escalation study (40 mg weekly [QW], 100 mg QW, 200 mg QW, 200 mg twice-weekly [BIW], and 100 mg BIW) of HDP-CDV for the prevention of CMV infection post-HCT. Treatment was initiated at the time of engraftment and continued until Week 13 post-HCT. HDP-CDV, at various doses, was active and well tolerated in the prevention CMV infection or disease.
Clinical Studies of HDP-CDV were performed and described in detail in the following Examples. For example, HDP-CDV-201 is a placebo-controlled, dose-escalating trial in HSCT CMV (R+) recipients, evaluating the ability of HDP-CDV to prevent or control CMV infection was carried out. Five cohorts were established in which participants or subjects received either placebo or the HDP-CDV orally, in doses ranging from 40 mg weekly (QW) to 200 mg twice weekly (BIW). Subjects who were post-HSCT were enrolled at the time of engraftment and randomized to HDP-CDV or placebo (3 to 1 ratio) and received blinded therapy until approximately 100 day post-transplantation. HDP-CDV doses were 40 mg QW, 100 mg QW, 200 mg QW, 200 mg BIW and 100 mg BIW. Escalation to the next dose was decided by the data monitoring committee after review of the safety data from the previous Cohort. Subjects who developed CMV disease or CMV infection requiring pre-emptive therapy with local standard of care were discontinued from blinded therapy and followed for 4 weeks. Subjects who completed treatment with blinded therapy were followed for 8 weeks post-therapy.
The primary endpoint was defined as the incidence of CMV disease at any time during treatment or CMV DNAemia≧200 copies/mL at the end of treatment. All subjects who received at least one dose of drug/placebo and had at least one efficacy evaluation post baseline were included in the primary analysis, regardless of their CMV DNAemia status (negative or positive) at baseline (mITT population). Results for the pooled HDP-CDV Cohorts and for each Cohort separately were analyzed versus that for pooled placebo.
The primary efficacy measure for this study was treatment failure, defined as the occurrence of CMV infection, defined as CMV DNAemia>200 copies/mL at the End of Treatment or diagnosis of CMV disease at any time during the treatment period. For the analysis, the following definitions apply:
For subjects who completed the treatment phase of the study, the End of Treatment was defined as the latest assessment from date of the last dose of study drug and up to 7 days for QW dosing, or the date of the last dose of study drug and up to 4 days for BIW dosing. For subjects who discontinued during the treatment phase of the study, the End of Treatment was defined as the date of the last dose of study drug.
The time to event was defined as the period between FDD and date of first occurrence of the event of interest (inclusive). The events included onset of CMV DNAemia, onset of CMV disease, and discontinuation because of excluded anti-CMV medications. Time to event/onset was derived as (the event/onset date—FDD)+1.
As detailed in the Statistical Analysis Plan, a modified CMV stratum was defined prior to conducting the statistical analysis based upon polymerase chain reaction (PCR) results from the central laboratory. If any positive CMV DNA value in plasma was collected before the first dose of study drug (including Screening, Pre-dose, (combined Screening/Pre-dose), CMV for stratification, and FDD), then the subject was placed into the modified CMV positive (≧100 copies/mL) stratum, otherwise the subject was in the modified CMV negative stratum. […]

[1] = 200 mg QW, modified CMV negative stratum
[2] = 200 mg QW, whole study period, CMV DNA negative at baseline
[3] = All HDP-CDV, CMV modified strata: negative
[4] = All HDP-CDV, CMV modified strata: positive

Compound: CCCCCCCCCCCCCCCCOCCCOP(=O)(O)COC(CO)Cn1ccc(N)nc1=O (stereo not drawn) [HDP-CDV]
- Subjects Receiving Antiviral Therapy and/or had CMV disease (200 mg QW, mITT): 7 (17.9%) subjects (%)
- Subjects without a CMV event (200 mg QW, mITT): 32 (82.1%) subjects (%)
- Time to Antiviral Therapy, Median (200 mg QW, mITT): 40.0 days
- Rate of CMV Disease or End of Treatment CMV Infection (≧200 copies/ml) (200 mg QW, mITT, missing=infection): 31% and 30.8%
- Rate of CMV DNAemia ≧1000 copies/mL during the treatment period (200 mg QW, mITT, post hoc): 18% and 17.9%
- Time to Antiviral Therapy, Mean (200 mg QW, mITT, censored values not included): 38.1 days
- % CMV Event Rate: Incidence of CMV DNAemia >100 copies/mL During Treatment (Fisher analysis, ref 14.3.3.2.1) [1]: 7 (24.1%) subjects (%)
- % CMV Event Rate: Incidence of CMV DNAemia ≧1,000 copies/mL at any time during treatment [1]: 2 (6.9%) subjects (%)
- Combined CMV event rate (CMV disease, viremia requiring treatment, viremia ≧1000 copies/mL) [1]: 13.8%
- Subjects Who Had CMV-related Event (CMV disease, CMV DNAemia ≧1,000 c/mL or initiation of anti-CMV treatment) [1]: 4 (13.8%) subjects (%)
- Subjects without a CMV-related event [1]: 25 (86.2%) subjects (%)
- Developed CMV DNAemia (≧100 copies/mL) during the treatment period (200 mg QW, plasma CMV DNA negative at baseline, mITT): 7 (23.3%) N(%)
- Time to CMV DNAemia (≧100 copies/mL), Median (200 mg QW, treatment period, CMV DNA negative at baseline): 15.0 days
- Time to CMV DNAemia (≧100 copies/mL), Mean (200 mg QW, treatment period, CMV DNA negative at baseline, censored values not included): 22.6 days
- Number of Subjects who had CMV DNAemia (≧100 copies/mL) by the end of study [2]: 11
- Time to CMV DNAemia (≧100 copies/mL), Mean [2]: 36.3 days
- Time to CMV DNAemia (≧100 copies/mL), Median [2]: 36.0 days
- subjects with emergence of viremia between end of treatment and end of treatment-free follow-up (8 weeks follow-up): less than 10%
- % CMV Event Rate, primary: CMV DNAemia >200 copies/mL at end of treatment OR CMV disease during treatment (All HDP-CDV (N = 133), CMV modified strata: negative): 21 (15.8%) subjects (%)
- % CMV Event Rate, primary: CMV DNAemia >200 copies/mL at end of treatment OR CMV disease during treatment (All HDP-CDV (N = 162), aGVHD strata: negative): 41 (25.3%) subjects (%)
- % CMV Event Rate, primary: CMV DNAemia >200 copies/mL at end of treatment OR CMV disease during treatment (All HDP-CDV (N = 171), mITT): 43 (25.1%) subjects (%)
- Difference (HDP-CDV minus placebo) in infection rate [3]: −14.0%
- Difference (HDP-CDV minus placebo) in rate of CMV DNAemia ≧1,000 copies/ml [3]: −25.9%
- Rate of CMV DNAemia ≧1,000 copies/ml during the treatment period [3]: 6.0%
- Rate of CMV Disease or End of Treatment CMV Infection [3]: 15.8%
- Difference (HDP-CDV minus placebo) in rate of CMV DNAemia ≧1,000 copies/mL [4]: −28.1%
- Rate of CMV DNAemia ≧1,000 copies/mL during the treatment period [4]: 55.3%
- Rate of CMV Disease or End of Treatment CMV Infection (All HDP-CDV, aGVHD randomization strata: negative): 25.3%
- Difference (HDP-CDV minus placebo) in infection rate (All HDP-CDV, aGVHD strata: negative): −6.8%
- Difference (HDP-CDV minus placebo) in rate of CMV DNAemia ≧1000 copies/mL (All HDP-CDV, mITT): −25.4%
- Difference (HDP-CDV minus placebo) in rate of CMV disease or end of treatment CMV infection (All HDP-CDV, mITT): −12.1%
- Rate of CMV DNAemia ≧1000 copies/mL during the treatment period (All HDP-CDV, mITT, post hoc): 17.0%
- % CMV Event Rate: Incidence of CMV DNAemia ≧1,000 copies/mL at any time during treatment (All HDP-CDV, modified CMV negative stratum): 8 (6.0%) subjects (%)
- CMV disease/infection rate (primary endpoint) (All cohorts combined, aGVHD positive strata (2 of 9)): 22.2%
- CMV DNAemia rate over whole study period (Cohorts 100 mg QW, 200 mg QW and 100 mg BIW): ~35%
- % CMV Event Rate, primary: CMV DNAemia >200 copies/mL at end of treatment OR CMV disease during treatment (Combined 100 mg QW, 200 mg BIW, 100 mg BIW (N = 86), CMV modified strata: negative): 8 (9.3%) subjects (%)
- Rate of CMV DNAemia ≧1000 copies/mL during the treatment period (Exploratory analysis, cohorts that met endpoint (200 mg QW, 200 mg BIW, 100 mg BIW combined), mITT): 11% and 10.9%
- Difference (HDP-CDV minus placebo) in rate of CMV DNAemia ≧1000 copies/mL (Exploratory analysis, cohorts that met endpoint, mITT): −23.2%
- Incidence of composite endpoint (initiation of anti-CMV therapy or CMV disease or CMV DNAemia >1,000 copies/mL) (Higher doses (≧200 mg QW)): less than 15%
- Incidence of CMV disease or initiation of anti-CMV preemptive therapy (Pooled HDP-CDV, mITT): 22% and 21.6%
- overall rates of CMV DNAemia detectable at any time during treatment (across doses of 100 mg QW and higher): 17.4 to 23.8%
- subjects who developed CMV disease (doses of 100 mg QW or higher (4/146)): 2.7%
- subjects who developed CMV disease (doses of 200 mg per week or higher (1/119)): 0.8%
- CMV disease/infection rate (primary endpoint) (doses ≧100 mg QW combined, aGVHD positive strata (1 out of 7)): 14.3%
- failure rate, exploratory endpoint (pooled 100 mg QW, 200 mg BIW, 100 mg BIW, CMV negative stratum (8 of 86)): 9%
